Tested on: Sprague-Dawley rats
Assay: Biomarkers in colon of TNBS-induced acute colitis rats (Example E1)
Format: in vivo, rat
Source text: The effect of treatment with peptide inhibitors of IL23R on inflammatory markers associated with IL23 signaling was examined in a rat model of acute colitis. Acute colitis was induced in Sprague-Dawley rats by a single intra-rectal instillation of 2,4,6-Trinitrobenzenesulfonic acid (TNBS) followed by efficacy analysis at day seven. Pharmacodynamic (PD) biomarkers were examined using enzyme-linked immunosorbent assay (ELISA), quantitative reverse transcription polymerase chain reaction, or immunohistochemistry analysis of colon, feces, or serum samples obtained from colitic rats treated with Peptide 993, Peptide 1185, or Peptide 980.
Acute colitis was induced by providing 7-week-old female Sprague-Dawley rats with various dosages of 64 mg/kg or 48 mg/kg of TNBS in 50% ethanol (TNBS/ethanol) administered intrarectally at Day 0. Peptide inhibitors were administered orally two or three times a day at various dosages and were provided in drinking water at various dosages, for 8 days starting approximately 24 hours (Day −1) prior TNBS inoculation.
Levels of a number of inflammatory biomarkers were examined in the colons. The distal colon tissue samples, designated for protein expression analysis, were flash frozen after collection. For protein extraction, the samples were thawed, weighed and homogenized in the extraction buffer (PBS pH 7.2 supplemented with Protease Inhibitors, 3× volume:weight). The homogenates were centrifuged at 13 krpm at 4° C. for 15 minutes, a total of two times to remove the debris. The supernatants were saved in multiple aliquots in −80° C. and subsequently used for protein expression analysis on ELISA. The total protein in each sample was quantified using BCA assay. MPO, IL-10, IL-6, IL-17A and IL-22 biomarker protein expression in the distal colon samples was analyzed using commercially available rat ELISA kits.

[1] = protein by ELISA, vs vehicle treated controls, Peptide 993 65 mg/kg/day
[2] = protein by ELISA, vs vehicle treated controls, Peptide 993 65 mg/kg/day, Peptide 980 37 mg/kg/day

CC(=O)NC(CCCNC(=N)N)C(=O)NC1CCSCC(C(=O)NC(Cc2ccc(OCCN)cc2)C(=O)NC(Cc2ccc3ccccc3c2)C(=O)NC2(C(=O)NC(CCC(=O)O)C(=O)NC(CC(N)=O)C(=O)NC(CC(N)=O)C(N)=O)CCOCC2)NC(=O)C(CCC(N)=O)NC(=O)C(Cc2c[nH]c3ccccc23)NC(=O)C(C(C)O)NC(=O)C(CCC(N)=O)NC1=O (stereo not drawn) [Peptide 993, Ac-[(D)-Arg]-cyclo[[Abu]-QTWQC]-[Phe[4-(2-aminoethoxy)]]-[2-Nal]-[4-amino-4-carboxy-tetrahydropyran]-ENN-NH2]
reduced: IL-1β level in colon [1] | IL-6 level in colon [1] | IL-17A level in colon [1] | IL-22 level in colon [2] | MPO level in colon [2]
but not IL-1β: IL-1β gene expression level, distal colon (data not shown, trend similar to the protein reduction)
